# Article PMC5218480 (PLoS ONE, 2017)
# Test system: MV-4-11 cells
# Test: Gene expression microarray analysis (Affymetrix PrimeView) and GSEA
# Format: cell-based, human
# Parameters: RFU PODN (11730768_x_at) / Fold change /veh PODN (11730768_x_at) / RFU LINC00158 (11744669_a_at) / Fold change /veh LINC00158 (11744669_a_at) / RFU DUSP10 (11751237_a_at) / Fold change /veh DUSP10 (11751237_a_at) / RFU ID3 (11757404_x_at) / Fold change /veh ID3 (11757404_x_at) / RFU PLEKHG5 (11737974_s_at) / Fold change /veh PLEKHG5 (11737974_s_at) / RFU LRRC4B (11730491_at) / Fold change /veh LRRC4B (11730491_at) / RFU GIMAP4 (11747438_a_at) / Fold change /veh GIMAP4 (11747438_a_at) / RFU KRT8 (11758183_x_at) / Fold change /veh KRT8 (11758183_x_at) / RFU CNN1 (11734310_a_at) / Fold change /veh CNN1 (11734310_a_at) / RFU VPS37D (11726825_at) / Fold change /veh VPS37D (11726825_at) / RFU C10orf10 (11716522_x_at) / Fold change /veh C10orf10 (11716522_x_at) / RFU KIR2DL2 /// KIR2DL4 /// KIR2DL5A /// KIR2DL5B /// KIR2DS1 /// KIR2DS2 /// KIR2DS3 /// KIR2DS4 /// KIR3DL3 /// KIR3DL3 /// KIR3DS1 (11738374_at) / Fold change /veh KIR2DL2 /// KIR2DL4 /// KIR2DL5A /// KIR2DL5B /// KIR2DS1 /// KIR2DS2 /// KIR2DS3 /// KIR2DS4 /// KIR3DL3 /// KIR3DL3 /// KIR3DS1 (11738374_at) / RFU C1QL1 (11718748_at) / Fold change /veh C1QL1 (11718748_at) / RFU TMPRSS4 (11747572_a_at) / Fold change /veh TMPRSS4 (11747572_a_at) / RFU HAMP (11756126_x_at) / Fold change /veh HAMP (11756126_x_at) / RFU RNFT2 (11725882_a_at) / Fold change /veh RNFT2 (11725882_a_at) / RFU NR4A2 (11747474_a_at) / Fold change /veh NR4A2 (11747474_a_at) / RFU ABCC12 (11746883_a_at) / Fold change /veh ABCC12 (11746883_a_at) / RFU TMEM136 (11760407_x_at) / Fold change /veh TMEM136 (11760407_x_at) / RFU CLDN22 /// WWC2 (11732394_at) / Fold change /veh CLDN22 /// WWC2 (11732394_at) / RFU HLA-DPB1 (11760878_x_at) / Fold change /veh HLA-DPB1 (11760878_x_at) / RFU SPINT1 (11716480_a_at) / Fold change /veh SPINT1 (11716480_a_at) / RFU GAP43 (11754022_s_at) / Fold change /veh GAP43 (11754022_s_at) / RFU A4GNT (11735810_at) / Fold change /veh A4GNT (11735810_at) / RFU PRB3 (11715151_x_at) / Fold change /veh PRB3 (11715151_x_at) / RFU TUBB4B (11761932_at) / Fold change /veh TUBB4B (11761932_at) / RFU CAPN14 (11732068_a_at) / Fold change /veh CAPN14 (11732068_a_at) / RFU TMCC2 (11721928_a_at) / Fold change /veh TMCC2 (11721928_a_at) / RFU IRGQ (11745062_a_at) / Fold change /veh IRGQ (11745062_a_at) / RFU FAM174B (11720279_a_at) / Fold change /veh FAM174B (11720279_a_at) / RFU TMPRSS4 (11748680_a_at) / Fold change /veh TMPRSS4 (11748680_a_at) / RFU FAM212B (11763350_a_at) / Fold change /veh FAM212B (11763350_a_at) / RFU PLEKHG5 (11743358_a_at) / Fold change /veh PLEKHG5 (11743358_a_at) / RFU ZSCAN30 (11745921_a_at) / Fold change /veh ZSCAN30 (11745921_a_at) / RFU CMKLR1 (11741424_a_at) / Fold change /veh CMKLR1 (11741424_a_at) / RFU LOC101060620 /// MAPK8IP1 (11723275_at) / Fold change /veh LOC101060620 /// MAPK8IP1 (11723275_at) / RFU SPTSSB (11747773_x_at) / Fold change /veh SPTSSB (11747773_x_at) / RFU PRSS12 (11739890_at) / Fold change /veh PRSS12 (11739890_at) / RFU BIN1 (11741810_x_at) / Fold change /veh BIN1 (11741810_x_at) / RFU WNT11 (11732464_a_at) / Fold change /veh WNT11 (11732464_a_at) / RFU C10orf10 (11716521_a_at) / Fold change /veh C10orf10 (11716521_a_at) / RFU C5orf56 (11738089_at) / Fold change /veh C5orf56 (11738089_at) / RFU CYB561 (11721691_x_at) / Fold change /veh CYB561 (11721691_x_at) / RFU ANKRD19P (11752326_a_at) / Fold change /veh ANKRD19P (11752326_a_at) / RFU OR2T12 /// OR2T33 /// OR2T8 (11738714_s_at) / Fold change /veh OR2T12 /// OR2T33 /// OR2T8 (11738714_s_at) / RFU VCAN (11748164_a_at) / Fold change /veh VCAN (11748164_a_at) / RFU JSRP1 (11732532_at) / Fold change /veh JSRP1 (11732532_at) / RFU KRTAP10-11 (11738290_x_at) / Fold change /veh KRTAP10-11 (11738290_x_at) / RFU MYO3A (11730013_a_at) / Fold change /veh MYO3A (11730013_a_at) / RFU EBF3 (11725865_a_at) / Fold change /veh EBF3 (11725865_a_at) / RFU CAMK2N1 (11719241_x_at) / Fold change /veh CAMK2N1 (11719241_x_at) / RFU C5orf56 (11738088_a_at) / Fold change /veh C5orf56 (11738088_a_at) / RFU OLFML3 (11715873_a_at) / Fold change /veh OLFML3 (11715873_a_at) / RFU LOC100653217 /// NTM (11731650_a_at) / Fold change /veh LOC100653217 /// NTM (11731650_a_at) / RFU MAPK11 (11762145_a_at) / Fold change /veh MAPK11 (11762145_a_at) / RFU FIZ1 (11724087_x_at) / Fold change /veh FIZ1 (11724087_x_at) / RFU OASL (11726364_x_at) / Fold change /veh OASL (11726364_x_at) / RFU SOX15 (11748057_x_at) / Fold change /veh SOX15 (11748057_x_at) / RFU CD79A (11719716_a_at) / Fold change /veh CD79A (11719716_a_at) / RFU HIST1H1D (11736915_at) / Fold change /veh HIST1H1D (11736915_at) / RFU CASKIN2 (11723855_a_at) / Fold change /veh CASKIN2 (11723855_a_at) / RFU LOC730098 (11760151_x_at) / Fold change /veh LOC730098 (11760151_x_at) / RFU OR4N2 (11742367_at) / Fold change /veh OR4N2 (11742367_at) / RFU PRRT2 (11749266_a_at) / Fold change /veh PRRT2 (11749266_a_at) / RFU SNX32 (11753110_a_at) / Fold change /veh SNX32 (11753110_a_at) / RFU CDHR5 (11726645_a_at) / Fold change /veh CDHR5 (11726645_a_at) / RFU RCAN1 (11760418_a_at) / Fold change /veh RCAN1 (11760418_a_at) / RFU FAM167A (11723789_a_at) / Fold change /veh FAM167A (11723789_a_at) / RFU FAM26E (11764081_at) / Fold change /veh FAM26E (11764081_at) / RFU ISYNA1 (11749810_s_at) / Fold change /veh ISYNA1 (11749810_s_at) / RFU ACY1 (11761880_at) / Fold change /veh ACY1 (11761880_at) / RFU 11764098_at / Fold change /veh 11764098_at / RFU SAMD14 (11745864_x_at) / Fold change /veh SAMD14 (11745864_x_at) / RFU NPB (11741838_a_at) / Fold change /veh NPB (11741838_a_at) / RFU TMPRSS6 (11731388_a_at) / Fold change /veh TMPRSS6 (11731388_a_at) / RFU KRTAP10-2 (11738614_at) / Fold change /veh KRTAP10-2 (11738614_at) / RFU ARHGAP8 /// PRR5-ARHGAP8 (11727945_x_at) / Fold change /veh ARHGAP8 /// PRR5-ARHGAP8 (11727945_x_at) / RFU KRTAP5-7 /// NADSYN1 (11734609_at) / Fold change /veh KRTAP5-7 /// NADSYN1 (11734609_at) / RFU RASL12 (11751679_a_at) / Fold change /veh RASL12 (11751679_a_at) / RFU CDKN2B (11736163_a_at) / Fold change /veh CDKN2B (11736163_a_at) / RFU PRF1 (11729649_at) / Fold change /veh PRF1 (11729649_at) / RFU, ZNF638 /// ZNF638-IT1 / Fold change vs veh, ZNF638 /// ZNF638-IT1 / RFU, PANK3 / Fold change vs veh, PANK3 / RFU, SH3YL1 / Fold change vs veh, SH3YL1 / RFU, ZEB2 / Fold change vs veh, ZEB2 / RFU, NRIP1 / Fold change vs veh, NRIP1 / RFU, PTTG1IP / Fold change vs veh, PTTG1IP / RFU, CAPN2 / Fold change vs veh, CAPN2 / RFU, MED14 / Fold change vs veh, MED14 / RFU, SNORA58 / Fold change vs veh, SNORA58 / RFU, C1orf63 / Fold change vs veh, C1orf63 / RFU, LRRFIP1 / Fold change vs veh, LRRFIP1 / RFU, NDUFAF7 / Fold change vs veh, NDUFAF7 / RFU, SLC12A2 / Fold change vs veh, SLC12A2 / RFU, IBTK / Fold change vs veh, IBTK / RFU, ESF1 / Fold change vs veh, ESF1 / Fold change vs veh, TMEM50B / RFU, TAOK1 / Fold change vs veh, TAOK1 / RFU, ACBD3 / Fold change vs veh, ACBD3 / RFU, TMA16 / Fold change vs veh, TMA16 / RFU, RWDD3 / Fold change vs veh, RWDD3 / RFU, BCAT1 / Fold change vs veh, BCAT1 / RFU, EDEM3 / Fold change vs veh, EDEM3 / RFU, TMEM33 / Fold change vs veh, TMEM33 / RFU, WDR75 / Fold change vs veh, WDR75 / RFU, AHCTF1 / Fold change vs veh, AHCTF1 / RFU, TFRC / Fold change vs veh, TFRC / RFU, ZDHHC17 / Fold change vs veh, ZDHHC17 / RFU, NOM1 / Fold change vs veh, NOM1 / RFU, ARL8B / Fold change vs veh, ARL8B / RFU, ZBTB11 / Fold change vs veh, ZBTB11 / RFU, TAMM41 / Fold change vs veh, TAMM41 / RFU, KIAA1704 /// LOC100996395 / Fold change vs veh, KIAA1704 /// LOC100996395 / RFU, ING1 / Fold change vs veh, ING1 / RFU, TRMT61B / Fold change vs veh, TRMT61B / RFU, FUBP3 / Fold change vs veh, FUBP3 / RFU, TP53 / Fold change vs veh, TP53 / RFU, TNKS2 / Fold change vs veh, TNKS2 / RFU, ZFP14 / Fold change vs veh, ZFP14 / RFU, ACTR2 / Fold change vs veh, ACTR2 / RFU, PPP3R1 / Fold change vs veh, PPP3R1 / RFU, PIK3R1 / Fold change vs veh, PIK3R1 / RFU, HNRNPA1 / Fold change vs veh, HNRNPA1 / RFU, RNF170 / Fold change vs veh, RNF170 / RFU, ZNF28 / Fold change vs veh, ZNF28 / RFU, RNGTT / Fold change vs veh, RNGTT / RFU, OGT / Fold change vs veh, OGT / RFU, BRD1 / Fold change vs veh, BRD1 / RFU, MARS / Fold change vs veh, MARS / RFU, ZNF655 / Fold change vs veh, ZNF655 / RFU, FAHD1 / Fold change vs veh, FAHD1 / RFU, BDP1 / Fold change vs veh, BDP1 / RFU, LRRCC1 / Fold change vs veh, LRRCC1 / RFU, ARID1A / Fold change vs veh, ARID1A / RFU, ZNF146 / Fold change vs veh, ZNF146 / RFU, ZNF330 / Fold change vs veh, ZNF330 / RFU, GPN3 / Fold change vs veh, GPN3 / RFU, C9orf123 / Fold change vs veh, C9orf123 / RFU, N4BP2L2 / Fold change vs veh, N4BP2L2 / RFU, ARFIP1 / Fold change vs veh, ARFIP1 / RFU, FAM179B / Fold change vs veh, FAM179B / RFU, BCL10 / Fold change vs veh, BCL10 / RFU, UHRF1BP1L / Fold change vs veh, UHRF1BP1L / RFU, BET1 / Fold change vs veh, BET1 / RFU, CNOT2 / Fold change vs veh, CNOT2 / RFU, ZNF268 / Fold change vs veh, ZNF268 / Fold change vs veh, ZNF507 / RFU, DGCR2 / Fold change vs veh, DGCR2 / RFU, WDSUB1 / Fold change vs veh, WDSUB1 / Fold change vs veh, HSP90B1 /// MIR3652 / RFU, ADSS / Fold change vs veh, ADSS / RFU, GK / Fold change vs veh, GK / RFU, ZNF148 / Fold change vs veh, ZNF148 / RFU, TAF9 / Fold change vs veh, TAF9 / RFU, SLC1A5 / Fold change vs veh, SLC1A5 / RFU, SLMO2 / Fold change vs veh, SLMO2 / RFU, ABCC4 / Fold change vs veh, ABCC4 / RFU, LOC101060439 /// RAP1B / Fold change vs veh, LOC101060439 /// RAP1B / RFU, RFX7 / Fold change vs veh, RFX7 / RFU, GTPBP10 / Fold change vs veh, GTPBP10 / RFU, CNEP1R1 / Fold change vs veh, CNEP1R1 / RFU, BIVM-ERCC5 /// ERCC5 / Fold change vs veh, BIVM-ERCC5 /// ERCC5 / RFU, ILF3 / Fold change vs veh, ILF3 / RFU 11762660_at / Fold change /veh 11762660_at / RFU VCAN (11757783_s_at) / Fold change /veh VCAN (11757783_s_at) / RFU DDX43 (11728927_at) / Fold change /veh DDX43 (11728927_at) / RFU KRT8 (11758188_x_at) / Fold change /veh KRT8 (11758188_x_at) / RFU NKD1 (11759106_at) / Fold change /veh NKD1 (11759106_at) / RFU SRD5A1 (11742802_a_at) / Fold change /veh SRD5A1 (11742802_a_at) / RFU TPSAB1 /// TPSB2 (11721975_s_at) / Fold change /veh TPSAB1 /// TPSB2 (11721975_s_at) / RFU GSTM3 (11746129_a_at) / Fold change /veh GSTM3 (11746129_a_at) / RFU IL23R (11737362_x_at) / Fold change /veh IL23R (11737362_x_at) / RFU TMEM51 (11727254_a_at) / Fold change /veh TMEM51 (11727254_a_at) / RFU PIWIL2 (11732686_x_at) / Fold change /veh PIWIL2 (11732686_x_at) / RFU ORM1 (11744905_x_at) / Fold change /veh ORM1 (11744905_x_at) / RFU CCDC152 (11743942_at) / Fold change /veh CCDC152 (11743942_at) / RFU ECM1 (11717891_a_at) / Fold change /veh ECM1 (11717891_a_at) / RFU IL23R (11748794_a_at) / Fold change /veh IL23R (11748794_a_at) / RFU TNFAIP8L3 (11732012_x_at) / Fold change /veh TNFAIP8L3 (11732012_x_at) / RFU MBOAT4 (11741988_at) / Fold change /veh MBOAT4 (11741988_at) / RFU 11764193_at / Fold change /veh 11764193_at / RFU TMEM53 (11763286_at) / Fold change /veh TMEM53 (11763286_at) / RFU MAGEB2 (11727129_at) / Fold change /veh MAGEB2 (11727129_at) / RFU TMEM200A (11744735_a_at) / Fold change /veh TMEM200A (11744735_a_at) / RFU CCDC152 (11751479_a_at) / Fold change /veh CCDC152 (11751479_a_at) / RFU FAM211A (11726209_a_at) / Fold change /veh FAM211A (11726209_a_at) / RFU RGS16 (11746705_a_at) / Fold change /veh RGS16 (11746705_a_at) / RFU VCAN (11755009_s_at) / Fold change /veh VCAN (11755009_s_at) / RFU RHOB (11743442_s_at) / Fold change /veh RHOB (11743442_s_at) / RFU RGS16 (11720943_a_at) / Fold change /veh RGS16 (11720943_a_at) / RFU RGS16 (11720944_at) / Fold change /veh RGS16 (11720944_at) / RFU, VPS4B / Fold change vs veh, VPS4B / RFU, CREB1 / Fold change vs veh, CREB1 / RFU, DNAJC13 / Fold change vs veh, DNAJC13 / RFU, GNAQ / Fold change vs veh, GNAQ / RFU, CDK5R1 / Fold change vs veh, CDK5R1 / RFU, ZRANB3 / Fold change vs veh, ZRANB3 / RFU, CUL4A / Fold change vs veh, CUL4A / RFU, CCNY / Fold change vs veh, CCNY / RFU, UFL1 / Fold change vs veh, UFL1 / RFU, COG3 / Fold change vs veh, COG3 / RFU, DIAPH2 / Fold change vs veh, DIAPH2 / RFU, SKA2 / Fold change vs veh, SKA2 / RFU, AFF3 / Fold change vs veh, AFF3 / RFU, LMF1 / Fold change vs veh, LMF1 / RFU, IPO11 / Fold change vs veh, IPO11 / RFU, DFFB / Fold change vs veh, DFFB / RFU, FOXP1 / Fold change vs veh, FOXP1 / RFU, CARD8 / Fold change vs veh, CARD8 / RFU, STRN3 / Fold change vs veh, STRN3 / RFU, ADK / Fold change vs veh, ADK / RFU, RASSF2 / Fold change vs veh, RASSF2 / RFU, WIPF1 / Fold change vs veh, WIPF1 / RFU, LARP1B / Fold change vs veh, LARP1B / RFU, RASA1 / Fold change vs veh, RASA1 / RFU, RB1 / Fold change vs veh, RB1 / RFU, PPFIA1 / Fold change vs veh, PPFIA1 / RFU, MAT2A / Fold change vs veh, MAT2A / RFU, CCT5 / Fold change vs veh, CCT5 / RFU, WDR92 / Fold change vs veh, WDR92 / RFU, CUX1 / Fold change vs veh, CUX1 / RFU, TTC7A / Fold change vs veh, TTC7A / RFU, TMEM135 / Fold change vs veh, TMEM135 / RFU, DEPTOR / Fold change vs veh, DEPTOR / RFU, CPM / Fold change vs veh, CPM / RFU, DNAJB6 / Fold change vs veh, DNAJB6 / RFU, CACNA2D3 / Fold change vs veh, CACNA2D3 / RFU, DTX4 / Fold change vs veh, DTX4 / RFU, TFCP2 / Fold change vs veh, TFCP2 / RFU, GMCL1 /// GMCL1P1 / Fold change vs veh, GMCL1 /// GMCL1P1 / RFU, AEBP2 / Fold change vs veh, AEBP2 / RFU, SNHG1 /// SNORD22 /// SNORD25 /// SNORD26 /// SNORD27 /// SNORD28 /// SNORD29 /// SNORD31 / Fold change vs veh, SNHG1 /// SNORD22 /// SNORD25 /// SNORD26 /// SNORD27 /// SNORD28 /// SNORD29 /// SNORD31 / Fold change (Aza/veh), C12orf56 (ProbeSet 11735607_a_at) / Fold change (ACY-1035/veh), C12orf56 (ProbeSet 11735607_a_at) / Fold change (Aza/veh), FGFR1OP (ProbeSet 11751329_s_at) / Fold change (ACY-1035/veh), FGFR1OP (ProbeSet 11751329_s_at) / Fold change (Aza/veh), VPS36 (ProbeSet 11739960_a_at) / Fold change (ACY-1035/veh), VPS36 (ProbeSet 11739960_a_at) / RFU SYPL1 (11715823_x_at) / Fold change /veh SYPL1 (11715823_x_at) / RFU IGFBP7 (11715501_s_at) / Fold change /veh IGFBP7 (11715501_s_at) / RFU REEP3 (11722064_at) / Fold change /veh REEP3 (11722064_at) / RFU IGLL1 (11728026_x_at) / Fold change /veh IGLL1 (11728026_x_at): dose or concentration left out as unconfirmed
# Conditions: ProbeSet 11728443_a_at; LIST B
structure (smiles),measurement,value
Nc1ncn([C@@H]2O[C@H](CO)[C@@H](O)[C@H]2O)c(=O)n1 [azacitidine],"RFU, TAOK1",59.03 RFU
